Assay [1] concerns Mycosphaerella graminicola (synthetic Septoria tritici). Put plainly: Foliar protection test for wheat septoria leaf blotch control. Format: in vivo. The following applies: foliar spray on Triticum aestivum cv. WinterHawk, inoculated 1 hour after treatment, evaluated 16 days later.
Assay [2] relates to Fusarium moniliforme (Fm). Put plainly: In vitro pathogen growth inhibition assay, Fm. Format: cell-based. To be noted: Fusarium verticillioides; ≥90% growth inhibition; 48 hours; vs 2% DMSO control; read-out: Compound Concentration (ppm) sufficient for ≥90% inhibition of Fm. The method, boiled down: (§1)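 Value reported is the compound concentration reaching ≥90% growth inhibition, from OD readings at 24 and 48 h after blank subtraction, confirmed visually. Inoculum was spores diluted in 17% V8 medium, except Rs, using 1.5 mm mycelial plugs in ¼ PDB; actual compound concentration corrected via OD600.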

A further assay relates to Sphaerotheca fuliginea. Put plainly: Foliar protection for cucumber powdery mildew control. Format: in vivo. To be noted: foliar spray on Cucumis sativus cv. Straight Eight, inoculated 24 hours after treatment, evaluated 7 days later. The method, boiled down:
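Protective foliar spray on 10-day-old Straight Eight cucumbers, with S. fuliginea spores dusted from infected stock plants 24 h after treatment. Disease developed at 23–27 °C, 60% RH and a 16 h photoperiod. Leaves were rated for mildew growth after 7 days; test rates 10 ppm or below.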

Assay [3] deals with Phytophthora capsici (Pc). Put plainly: In vitro pathogen growth inhibition assay, Pc. To be noted: 48 h, ≥90% growth inhibition, 48 hours, vs 2% DMSO control, read-out: Compound Concentration (ppm) sufficient for ≥90% inhibition of Pc. Format: cell-based. The method, boiled down: (§2)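 Spores of Dm, Fv and Pc were diluted in 17% V8 liquid medium; Rs used 1.5 mm mycelial plugs in ¼ PDB. Compounds from 2.5 mg/ml DMSO stocks were combined with inoculum, growth was read by OD600 at 24 and 48 h with blank subtraction, and the reported value is the concentration giving ≥90% inhibition.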

The subject of a further assay is Diplodia maydis (Dm). Put plainly: In vitro pathogen growth inhibition assay, Dm. Format: cell-based. The following applies: Stenocarpella maydis, 48 h, ≥90% growth inhibition; 48 hours; vs 2% DMSO control; read-out: Compound Concentration (ppm) sufficient for ≥90% inhibition of Dm. The method, boiled down: as §2
The next assay deals with Puccinia triticina. Put plainly: Foliar protection test for wheat leaf rust control. Format: in vivo. The following applies: foliar application to wheat (Triticum aestivum cv. Winterhawk), evaluated 10 days later.
Another assay has as its system Phakopsora pachyrhizi. Put plainly: Foliar protection test for Asian soybean rust control. Format: in vivo. To be noted: foliar application to soybean (Glycine max AG4832), percent disease area evaluated 14 days later.
A further assay relates to Rhizoctonia solani (Rs). Put plainly: In vitro pathogen growth inhibition assay, Rs (mycelial plugs). Format: cell-based. The following applies: Rhizoctonia solani, 48 h, ≥90% growth inhibition; mycelial plugs; 48 hours; vs 2% DMSO control; read-out: Compound Concentration (ppm) sufficient for ≥90% inhibition of Rs. The method, boiled down:
as §2

The test system of assay [4] is Collectotrichum graminicola (Cg). Put plainly: In vitro pathogen growth inhibition assay, Cg. The following applies: 48 h, ≥90% growth inhibition; 48 hours; vs 2% DMSO control; read-out: Compound Concentration (ppm) sufficient for ≥90% inhibition of Cg. Format: cell-based. The method, boiled down: as §1
The test system of assay [5] is Blumeria graminis f. sp. hordei. Put plainly: Foliar protection test for barley powdery mildew control. Format: in vivo. The following applies: foliar spray on Hordeum vulgare cv. Perry, inoculated 24 hours after treatment, evaluated 7 days later. The method, boiled down:
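Protective foliar test: compound atomized onto both leaf surfaces of 6-day-old Hordeum vulgare cv. Perry, followed after 24 h by spore-cloud inoculation from colonized untreated plants. Disease rated on leaves 7 days on, plants held at 20 to 22° C and 70% RH.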

Assay [6] deals with Fusarium graminearum. Format: in vivo. To be noted: corn from treated seeds, 0.025 mg/seed, F. graminearum inoculated, Table 13.
A further assay has as its system Botrtyis cinerea (Bc). Put plainly: In vitro pathogen growth inhibition assay, Bc. Format: cell-based. The following applies: 48 h, ≥90% growth inhibition; 48 hours; vs 2% DMSO control; read-out: Compound Concentration (ppm) sufficient for ≥90% inhibition of Bc. The method, boiled down: as §1
The subject of assay [7] is Fusarium virguliforme (Fv). Put plainly: In vitro pathogen growth inhibition assay, Fv. The following applies: ≥90% growth inhibition, 48 hours, vs 2% DMSO control, read-out: Compound Concentration (ppm) sufficient for ≥90% inhibition of Fv. Format: cell-based. The method, boiled down: as §2
The subject of assay [8] is Fusarium graminearum. Format: in vivo. The following applies: spray on flowering Triticum aestivum cv. Samson, inoculated 24 hours after treatment, evaluated 14 days later.
A further assay has as its system Septoria tritici (St). Put plainly: In vitro pathogen growth inhibition assay, St. To be noted: Zymoseptoria tritici, 48 h, ≥90% growth inhibition; 48 hours; vs 2% DMSO control; read-out: Compound Concentration (ppm) sufficient for ≥90% inhibition of St. Format: cell-based. The method, boiled down: as §1

Each structure is given as a SMILES string. In brackets after ≈: the same amount, converted by molar mass.

As to `CCNC(=O)C(C)(C)n1c(=O)c2c(C)c(-n3nccn3)sc2n(C[C@H](OCCC#N)c2cc(F)ccc2OC)c1=O` [Compound I-206, (R)-2-(1-(2-(2-cyanoethoxy)-2-(5-fluoro-2-methoxyphenyl)ethyl)-5-methyl-2,4-dioxo-6-(2H-1,2,3-triazol-2-yl)-1,4-dihydrothieno[2,3-d]pyrimidin-3 (2H)-yl)-N-ethyl-2-methylpropanamide], the “Septoria Leaf Blotch Control at a compound concentration of 25 ppm or lower” value in assay [1] is on record as “AA (≥85% control of wheat septoria leaf blotch)”. For the same molecule, the IC90 was 0.08 µg/mL (≈ 0.137 µM) in assay [2]; more than 50 µg/mL in assay [3]; 0.4 µg/mL (≈ 0.685 µM) in the assay on Diplodia maydis (Dm); 0.08 µg/mL (≈ 0.137 µM) with Rhizoctonia solani (Rs); 0.4 µg/mL (≈ 0.685 µM) in assay [4]; 0.4 µg/mL (≈ 0.685 µM) in the assay on Botrtyis cinerea (Bc). The IC90 in assay [7] was 0.4 µg/mL (≈ 0.685 µM); in the assay on Septoria tritici (St) it was more than 50 µg/mL. Besides, the “Cucumber Powdery Mildew Control at a compound concentration of 10 ppm or lower” value with Sphaerotheca fuliginea is “AA (≥85% control of cucumber powdery mildew)”. Further, the “Wheat Leaf Rust Control at a compound concentration of 10 ppm or lower” value in the assay on Puccinia triticina is on record as “AA (≥85% control of wheat leaf rust)”. In the assay with Phakopsora pachyrhizi, the “Asian Soybean Rust Control at a compound concentration of 25 ppm or lower” value was “AA (≥85% control of Asian soybean rust)”. In addition, in assay [5], the “Barley Powdery Mildew Control at a compound concentration of 10 ppm or lower” value is reported as “AA (≥85% control of barley powdery mildew)”. Further, the “Plant Height” value with Fusarium graminearum [6] was 42.72 cm. The “Wheat Fusarium Head Blight Control at a compound concentration of 25 ppm or lower” value in the assay on Fusarium graminearum [8] is “B (from 50 to 69% control of wheat fusarium head blight)”.

Consider `COc1ccc(F)cc1[C@H](Cn1c(=O)n([C@H](C)C(=O)NC(C)C)c(=O)c2c(C)c(-n3nccn3)sc21)OCC(C)(C)C#N` [Compound I-253, (R)-2-(1-((R)-2-(2-cyano-2-methylpropoxy)-2-(5-fluoro-2-methoxyphenyl)ethyl)-5-methyl-2,4-dioxo-6-(2H-1,2,3-triazol-2-yl)-1,4-dihydrothieno[2,3-d]pyrimidin-3 (2H)-yl)-N-isopropylpropanamide], for which the “Septoria Leaf Blotch Control at a compound concentration of 25 ppm or lower” value in assay [1] is “AA (≥85% control of wheat septoria leaf blotch)”. The IC90 was 0.08 µg/mL (≈ 0.131 µM) in assay [2]; not below 50 µg/mL in assay [3]; 0.4 µg/mL (≈ 0.654 µM) in the assay on Diplodia maydis (Dm); 0.08 µg/mL (≈ 0.131 µM) in the assay with Rhizoctonia solani (Rs); 0.4 µg/mL (≈ 0.654 µM) in assay [4]; 0.4 µg/mL (≈ 0.654 µM) in the assay on Botrtyis cinerea (Bc). Besides, the IC90 was 0.4 µg/mL (≈ 0.654 µM) in assay [7] and not below 2 µg/mL in the assay with Septoria tritici (St). Further, the “Cucumber Powdery Mildew Control at a compound concentration of 10 ppm or lower” value in the assay with Sphaerotheca fuliginea was “AA (≥85% control of cucumber powdery mildew)”. Moreover, in the assay on Puccinia triticina, the “Wheat Leaf Rust Control at a compound concentration of 10 ppm or lower” value is “AA (≥85% control of wheat leaf rust)”. Also, in the assay on Phakopsora pachyrhizi, the “Asian Soybean Rust Control at a compound concentration of 25 ppm or lower” value is “A (from 70% to 84% control of Asian soybean rust)”. In assay [5], the “Barley Powdery Mildew Control at a compound concentration of 10 ppm or lower” value is reported as “A (from 70% to 84% control of barley powdery mildew)”. Besides, the “Plant Height” value in the assay on Fusarium graminearum [6] is given as 37.81 cm. Further, the “Wheat Fusarium Head Blight Control at a compound concentration of 25 ppm or lower” value in the assay with Fusarium graminearum [8] is given as “B (from 50 to 69% control of wheat fusarium head blight)”.

These data come from US10941157B2, “Pesticidal compositions and uses thereof” (Gilead Apollo, LLC, priority 2015, dated 2021).
